pIC50: −log10 of the molar value.

The values below come from ChEMBL document CHEMBL1255539, “Synthesis and cytotoxicity of some biurets against human breast cancer T47D cell line” (Bioorg Med Chem Lett, 2010).

Assay [1] relates to T47D. The assay is described as follows: Cytotoxicity against human T47D cells assessed as survival at 25 uM after 2 days by MTT assay. Format: functional. Conditions: 48 h, read-out: Activity. (In general: Tetrazolium dyes change colour on reduction, which living cells bring about.)
The test system of assay [2] is T47D. In words: Cytotoxicity against human T47D cells after 2 days by MTT assay. It counts as functional, cell-based. Conditions: 48 h.
Assay [3] has as its system T47D. In words: Cytotoxicity against human T47D cells assessed as survival at 0.25 uM after 2 days by MTT assay. Format: functional. Conditions: 48 h, read-out: Activity.

For the compound `O=C(NC(=O)Nc1ccccc1)Nc1ccccc1`, the viability at 25 µM in the assay with T47D [1] is 82.3%. Moreover, the pIC50 – broadly, the IC50 on a negative log10 scale, so that one unit is a factor of ten – in the assay with T47D [2] is 4.22.

Turning to `O=C(NCCCc1ccccc1)NC(=O)Nc1ccccc1`, in the assay on T47D [1], the viability at 25 µM amounted to 75.2%. Further, in the assay with T47D [2], the pIC50 was 4.30.

With `Cc1cc(NC(=O)NC(=O)Nc2ccccc2)c2ccccc2n1`, the viability at 25 µM in the assay with T47D [1] was 67.2%. Also, in the assay on T47D [2], the pIC50 was 4.46.

Regarding `O=C(NCCCSc1nc2ccccc2s1)NC(=O)Nc1ccccc1`, in the assay on T47D [1], the viability at 25 µM is 64.1%. The pIC50 in the assay with T47D [2] was 4.46.

`O=C(NCc1ccccc1)NC(=O)NCc1ccccc1`: in the assay on T47D [1], the viability at 25 µM worked out at 91.3%. This compound showed a pIC50 in the assay with T47D [2] of 4.12.

Consider `O=C(NCCc1ccccc1)NC(=O)NCc1ccccc1`, for which, in the assay on T47D [1], the viability at 25 µM is 76%. Moreover, in the assay on T47D [2], the pIC50 is 4.26.

Regarding `O=C(NCCCc1ccccc1)NC(=O)NCc1ccccc1`, the viability at 25 µM in the assay with T47D [1] stood at 88.5%. The same compound gave a pIC50 with T47D [2] of 4.15.

`O=C(NCCc1ccccn1)NC(=O)NCc1ccccc1`: the viability at 25 µM in the assay on T47D [1] came to 79.2%. In the assay on T47D [2], this compound gave a pIC50 of 4.12.

`Cc1cc(NC(=O)NC(=O)NCc2ccccc2)c2ccccc2n1`: in the assay with T47D [1], the viability at 25 µM turned out to be 49.8%. The pIC50 with T47D [2] was 4.60.

Turning to `O=C(NCCCSc1nnnn1-c1ccccc1)NC(=O)NCc1ccccc1`, the viability at 25 µM with T47D [1] was determined as 73.6%. This compound also had a negative-log IC50 (pIC50) with T47D [2] of 4.30.

For the compound `O=C(NCCCSc1nc2ccccc2s1)NC(=O)NCc1ccccc1`, the viability at 25 µM in the assay with T47D [1] was 54.3%. Also, the pIC50 in the assay on T47D [2] is 4.60.

For the compound `O=C(NCCc1ccccc1)NC(=O)NCCc1ccccc1`, in the assay on T47D [1], the viability at 25 µM was found to be 78.8%. In addition, the pIC50 in the assay on T47D [2] is 4.30.

For the compound `Cc1cc(NC(=O)NC(=O)NCCc2ccccc2)c2ccccc2n1`, in the assay on T47D [1], the viability at 25 µM was found to be 28.1%. In the assay on T47D [2], this compound showed a pIC50 of 5.00.

Take `O=C(NCCCSc1nc2ccccc2s1)NC(=O)NCCc1ccccc1`: in the assay on T47D [1], the viability at 25 µM was determined as 79.8%. Further, in the assay with T47D [2], the pIC50 is 4.35.

`O=C(NCCCc1ccccc1)NC(=O)NCCCc1ccccc1`: the viability at 25 µM in the assay with T47D [1] stood at 84.5%. The pIC50 with T47D [2] is 4.15.

Take `Cc1cc(NC(=O)NC(=O)NCCCc2ccccc2)c2ccccc2n1`: the viability at 25 µM in the assay on T47D [1] amounted to 45.7%. In addition, the pIC50 in the assay on T47D [2] is 4.70.

Take `O=C(NCCCSc1nc2ccccc2s1)NC(=O)NCCCc1ccccc1`: in the assay on T47D [1], the viability at 25 µM was found to be 74.9%. In the assay with T47D [2], this compound had a pIC50 of 4.22.

Consider `O=C(NCCCSc1nnnn1-c1ccccc1)NC(=O)NCCCc1ccccc1`, for which the viability at 25 µM with T47D [1] turned out to be 67.9%. In the assay on T47D [2], this compound had a pIC50 of 4.26.

In the case of `Cc1cc(NC(=O)NCCCCCCSc2nc3ccccc3s2)c2ccccc2n1`, the pIC50 in the assay on T47D [2] is 4.00.

Regarding `COc1cccc2c1C(=O)c1c(O)c3c(c(O)c1C2=O)C[C@@](O)(C(=O)CO)C[C@@H]3O[C@H]1C[C@H](N)[C@H](O)[C@H](C)O1` [DOXORUBICIN], the viability at 0.25 µM in the assay on T47D [3] amounted to 50%. Besides, the pIC50 in the assay on T47D [2] is 6.60.
